Tests used:
Assay in all cases: relative viability (nuclei count vs DMSO), 5 days (fraction); higher = more cells survive
Ruboxistaurin + OSI-027 = compound: CN(C)C[C@@H]1CCn2cc(c3ccccc32)C2=C(C(=O)NC2=O)c2cn(c3ccccc23)CCO1 [Ruboxistaurin] + COc1cccc2cc(-c3nc([C@H]4CC[C@H](C(=O)O)CC4)n4ncnc(N)c34)[nH]c12 [OSI-027] (partner 0.5 µM)
How it was run: (§1)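 Dosing by pin tool came one day after lung cancer cell lines were seeded in 1536-well plates, using either one drug or a fixed anchor-drug dose plus five library-drug doses (not always all listed) in √10 steps. After 5 days, nuclei were counted on 4× images. Relative viability is treated-well nuclei count divided by vehicle-well nuclei count, and values are medians of duplicate plates.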

[1] = compound: CN(C)C[C@@H]1CCn2cc(c3ccccc32)C2=C(C(=O)NC2=O)c2cn(c3ccccc23)CCO1 [Ruboxistaurin] + N=C(N)NC(=N)NCCc1ccccc1 [Phenformin] (partner 250 µM)
How it was run: as §1

[2] = compound: CN(C)C[C@@H]1CCn2cc(c3ccccc32)C2=C(C(=O)NC2=O)c2cn(c3ccccc23)CCO1 [Ruboxistaurin] + COc1cc2c(Oc3ccc(NC(=O)C4(C(=O)Nc5ccc(F)cc5)CC4)cc3F)ccnc2cc1OCCCN1CCOCC1 [Foretinib] (partner 0.25 µM)
How it was run: as §1

[3] = compound: CN(C)C[C@@H]1CCn2cc(c3ccccc32)C2=C(C(=O)NC2=O)c2cn(c3ccccc23)CCO1 [Ruboxistaurin] + Cc1nc(NC(=O)N2CCC[C@H]2C(N)=O)sc1-c1ccnc(C(C)(C)C(F)(F)F)c1 [Alpelisib] (partner 2 µM)
How it was run: as §1

[4] = compound: CN(C)C[C@@H]1CCn2cc(c3ccccc32)C2=C(C(=O)NC2=O)c2cn(c3ccccc23)CCO1 [Ruboxistaurin] + C[C@@H](Oc1cc(-c2cnn(C3CCNCC3)c2)cnc1N)c1c(Cl)ccc(F)c1Cl [Crizotinib] (partner 1 µM)
How it was run: as §1

| Cell Line | relative viability (Ruboxistaurin + OSI-027; first compound 0.08 µM) | relative viability (Ruboxistaurin + OSI-027; first compound 0.8 µM) | relative viability (Ruboxistaurin + OSI-027; first compound 2.53 µM) | relative viability (Ruboxistaurin + OSI-027; first compound 8 µM) | relative viability ([1]; first compound 0.08 µM) | relative viability ([1]; first compound 0.8 µM) | relative viability ([1]; first compound 2.53 µM) | relative viability ([1]; first compound 8 µM) | relative viability ([2]; first compound 0.08 µM) | relative viability ([2]; first compound 0.8 µM) | relative viability ([2]; first compound 2.53 µM) | relative viability ([2]; first compound 8 µM) | relative viability ([3]; first compound 0.08 µM) | relative viability ([3]; first compound 0.8 µM) | relative viability ([3]; first compound 2.53 µM) | relative viability ([3]; first compound 8 µM) | relative viability ([4]; first compound 0.08 µM) | relative viability ([4]; first compound 0.8 µM) | relative viability ([4]; first compound 2.53 µM) | relative viability ([4]; first compound 8 µM) |
| --- | --- | --- | --- | --- | --- | --- | --- | --- | --- | --- | --- | --- | --- | --- | --- | --- | --- | --- | --- | --- |
| HCC-78 | 0.346 | 0.335 | 0.316 | 0.3 | 0.691 | 0.906 | 0.779 | 0.739 | 0.553 | 0.593 | 0.546 | 0.528 | 0.358 | 0.311 | 0.327 | 0.286 | 0.31 | 0.351 | 0.323 | 0.291 |
| HCC-366 | 0.965 | 0.675 | 0.869 | 0.411 | 0.666 | 0.572 | 0.629 | 0.664 | 1.08 | 0.919 | 0.882 | 0.874 | 0.536 | 0.326 | 0.373 | 0.226 | 0.58 | 0.518 | 0.605 | 0.536 |
| HCC-827 | 0.889 | 0.82 | 0.772 | 0.605 | 0.454 | 0.397 | 0.427 | 0.384 | 1.17 | 1.03 | 1.03 | 1 | 1.13 | 1.02 | 0.984 | 0.969 | 0.977 | 0.907 | 1.01 | 0.96 |
| HOP-62 | 0.884 | 0.783 | 0.826 | 0.753 | 0.681 | 0.65 | 0.704 | 0.839 | 1.13 | 1.07 | 1.13 | 1.22 | 0.932 | 1.08 | 0.992 | 1 | 0.882 | 1.05 | 0.741 | 1.05 |
| LC-2-ad | 0.935 | 0.842 | 0.86 | 0.781 | 0.621 | 0.574 | 0.615 | 0.572 | 1.03 | 0.905 | 1.02 | 0.747 | 0.779 | 0.785 | 0.846 | 0.783 | 0.458 | 0.406 | 0.476 | 0.638 |
| LCLC-97TM1 | 0.508 | 0.547 | 0.482 | 0.243 | 0.466 | 0.383 | 0.475 | 0.466 | 0.863 | 0.891 | 0.923 | 0.825 | 0.245 |  | 0.223 | 0.204 | 0.358 |  | 0.474 | 0.404 |
| LCLC-103H | 0.46 | 0.384 | 0.407 | 0.357 | 0.336 | 0.285 | 0.336 | 0.321 | 0.783 | 0.612 | 0.777 | 0.56 | 0.99 | 0.802 | 0.826 | 0.862 | 1.21 | 0.929 | 0.905 | 1.01 |
| LK-2 | 0.224 | 0.222 | 0.158 | 0.158 | 0.476 | 0.38 | 0.379 | 0.225 | 1.32 | 0.962 | 0.927 | 0.892 | 1.19 | 1.01 | 1 | 0.577 | 0.249 | 0.242 | 0.278 | 0.257 |
| LOU-NH91 | 0.748 | 0.629 | 0.663 | 0.676 | 0.827 | 0.666 | 0.722 | 0.751 | 1.02 | 0.879 | 0.898 | 0.944 | 0.846 | 0.666 | 0.705 | 0.676 | 0.806 | 0.694 | 0.757 | 0.77 |
| LU99A | 0.285 | 0.271 | 0.266 | 0.258 | 0.759 | 0.625 | 0.872 | 0.787 | 0.802 | 0.774 | 0.778 | 0.751 | 0.552 | 0.48 | 0.45 | 0.297 | 0.507 | 0.506 | 0.503 | 0.506 |
| LXF-289 | 0.804 | 0.74 | 0.9 | 0.623 | 0.514 | 0.509 | 0.488 | 0.594 | 1.01 | 0.895 | 0.966 | 1.04 | 1.11 | 0.952 | 0.994 | 1 | 0.826 | 0.758 | 0.826 | 0.951 |
| NCI-H522 | 0.741 | 0.783 | 0.909 | 0.689 | 0.675 | 0.605 | 0.703 | 0.622 |  |  |  |  |  |  |  |  |  |  |  |  |
| NCI-H1395 | 0.653 | 0.647 | 0.662 | 0.597 | 0.502 | 0.415 | 0.525 | 0.498 | 0.993 | 0.904 | 1.02 | 0.911 | 1.06 | 0.944 | 1.12 | 0.931 |  |  |  |  |
| NCI-H1650 | 0.711 | 0.408 | 0.614 | 0.376 | 0.542 | 0.387 | 0.4 | 0.287 | 1.66 | 1.01 | 1.31 | 1.09 |  |  |  |  | 0.991 | 0.837 | 1.19 | 1.04 |
| NCI-H1703 |  |  |  |  |  |  |  |  | 0.367 |  | 0.408 | 0.327 | 0.356 | 0.323 | 0.366 | 0.308 | 0.662 | 0.574 | 0.582 | 0.322 |
| NCI-H1792 | 0.798 | 0.605 | 0.736 | 0.625 | 0.32 |  | 0.247 | 0.243 |  |  |  |  | 0.77 | 0.62 | 0.695 | 0.694 | 1.05 | 0.956 | 0.966 | 1.01 |
| NCI-H1793 | 0.262 | 0.239 | 0.273 | 0.265 | 0.412 | 0.321 | 0.422 | 0.408 | 0.637 | 0.576 | 0.652 | 0.687 | 0.939 | 0.517 | 0.615 | 0.817 |  |  |  |  |
| NCI-H2342 | 0.678 | 0.672 | 0.608 | 0.698 | 0.626 | 0.585 | 0.616 | 0.597 | 1.2 | 0.83 | 1.06 | 1.18 |  |  |  |  |  |  |  |  |

From the supplement of paper PMC10307832
